Tests used:
[1] = Pharmacokinetic evaluation in rats; assay type: in vivo, rat; details: for clearance / Cmax / bioavailability / half-life: rat, plasma, dose and route not given; for clearance: read-out: Clp (plasma clearance); for Cmax: read-out: Cmax (maximum observed plasma concentration); for bioavailability: read-out: F % (bioavailability); for half-life: read-out: t1/2 (plasma half-life) (converted)
serum calcium = test: In vivo pharmacodynamic effects: total serum calcium (arsenazo III); details: rat, oral gavage
Protocol: Procedures for In Vivo Pharmacodynamic Effects
The objective of these studies was to assess the effect of compounds on stimulating PTH release and increasing calcium secretion in the rat. Male Sprague-Dawley rats (3-4 months old) were equipped with jugular vein cannulae (JVC) by surgical procedure. The rats were given the compound by oral gavage. Blood was sampled from the JVC at 15 minutes, 30 minutes, 60 minutes, 120 minutes, 240 minutes, 420 minutes, and 24 hrs post compound administration. Plasma was separated and used for a PTH ELISA assay and a calcium concentration assay. After the last blood sampling, the rats were sacrificed under anesthesia by inhalation of CO2. All procedures were conducted in compliance with the Animal Welfare Act, the Guide for the Care and Use of Laboratory Animals and the recommendations of the AVMA Panel on Euthanasia.
Rat plasma samples were used for measuring serum PTH levels: The Rat Intact PTH 1-84 ELISA kit (Immutopics Cat#60-2500) was used according to the manufacturer's instructions. Total serum calcium determination was made using a calcium arsenazo III reagent (Fisher Scientific Cat # Pointe Scientific Calcium (Arsenazo III) Reagents; Mfr. No.: C7529-500; Qty.: 500 mL. Mfr. No.: C7529-500, Part #23666172) according to the manufacturer's instructions. For these experiments, 2 μl of sample was added to 198 μl of reagent, mixed, and read at 650 nm.

human CaSR = biological target: T1, human CaSR (Homo sapiens, UniProt P41180); test: CaSR binding assay (radioligand, HEK293 membranes); parameters: expressed in transfected cells; host or cells: HEK293 cell membranes; details: for Ki: membranes of HEK293 cells expressing human CaSR, radio-labeled EXAMPLE 25; for IC50: read-out: IC50s (high affinity for the human calcium sensing receptor and potent antagonist activity)
T1 sequence (P41180 20-1078): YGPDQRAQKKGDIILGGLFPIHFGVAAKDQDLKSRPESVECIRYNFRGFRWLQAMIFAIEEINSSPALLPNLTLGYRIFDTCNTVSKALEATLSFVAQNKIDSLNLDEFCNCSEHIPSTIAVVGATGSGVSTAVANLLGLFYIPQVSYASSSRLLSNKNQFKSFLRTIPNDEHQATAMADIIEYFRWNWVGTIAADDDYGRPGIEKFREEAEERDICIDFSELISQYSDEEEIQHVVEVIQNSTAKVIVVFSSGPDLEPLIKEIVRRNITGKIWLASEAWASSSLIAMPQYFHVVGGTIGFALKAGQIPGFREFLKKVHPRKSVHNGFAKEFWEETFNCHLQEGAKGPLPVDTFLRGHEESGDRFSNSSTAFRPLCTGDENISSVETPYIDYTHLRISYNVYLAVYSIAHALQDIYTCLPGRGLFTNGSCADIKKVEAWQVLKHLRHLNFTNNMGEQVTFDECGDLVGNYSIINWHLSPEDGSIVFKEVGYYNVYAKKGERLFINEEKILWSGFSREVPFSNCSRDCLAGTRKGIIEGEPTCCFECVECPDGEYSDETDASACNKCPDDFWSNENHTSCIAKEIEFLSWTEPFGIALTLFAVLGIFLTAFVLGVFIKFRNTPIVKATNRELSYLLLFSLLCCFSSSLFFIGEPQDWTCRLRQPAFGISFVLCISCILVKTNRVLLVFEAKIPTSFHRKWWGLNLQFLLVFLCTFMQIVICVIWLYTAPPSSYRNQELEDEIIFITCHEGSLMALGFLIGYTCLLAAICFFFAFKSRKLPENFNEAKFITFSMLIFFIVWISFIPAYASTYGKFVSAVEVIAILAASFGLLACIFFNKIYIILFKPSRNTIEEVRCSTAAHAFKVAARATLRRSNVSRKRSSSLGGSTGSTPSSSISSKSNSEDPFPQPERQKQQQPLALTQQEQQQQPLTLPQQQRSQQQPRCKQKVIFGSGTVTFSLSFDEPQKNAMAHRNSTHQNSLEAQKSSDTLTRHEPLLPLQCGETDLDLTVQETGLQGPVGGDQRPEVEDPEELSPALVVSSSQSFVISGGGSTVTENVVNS
Protocol: Procedures for CaSR Binding Assay
Membrane preparations from HEK293 cells expressing the human CaSR were generated. The cells were cultured and then washed twice with 1×PBS. The cells were dissociated by adding 4 ml pre-warmed 0.25% Trypsin-EDTA, and by incubating the flask at RT for 3 minutes. 10 ml media was dispensed over the cell layer surface, and the cells were harvested into a centrifuge tube. The cells were centrifuged at 200×g for 10 minutes. The cell pellet was suspended in 30 ml of membrane preparation buffer and then homogenized on ice twice at 16000 rpm for 10 seconds. Following homogenization, the membrane was collected by centrifuge at 40000×g for 30 minutes at 4° C., washed twice with 30 ml membrane preparation buffer, and centrifuged again at 40000×g for 10 minutes. The membrane pellet was suspended in 30 ml membrane preparation buffer (50 mM Tris, pH7.0, 10 mM MgCl, Proteinase inhibitor (Roche, REF 04693116001), and then homogenized on ice once at 16000 rpm for 10 seconds. The total protein concentration was measured using a BCA kit. The membrane protein concentration was adjusted to 2.4 mg/ml and then diluted with binding buffer (10 mM HEPES, pH7.4, 130 mM NaCl, 0.4 mM CaCl2, 5 mM MgCl2, 1 mM EGTA, 10 mM glucose, 0.1% BSA) to 0.33 μg/μl. The final amount in the binding assay was 20 μg/well. Test compound was serially diluted manually by using BIOHIT multi-channel pipettor in 100% DMSO (10 point, 3-fold dilution of each compound from 5.0 μM in 100% DMSO). 4 μl of serially diluted compound was manually transferred into a second assay microplate that contained 196 μl of binding assay buffer to create the intermediate dilution plate. For background, 20 μl of assay buffer was added to each control well. […] The binding reaction used a 100 μl reaction volume consisting of 10 μl of test compound, 30 μl of diluted radio-labelled compound, and 60 μl of membrane solution (0.33 μg/μl). The reaction mixture was incubated at room temperature for one hour. The Grade GF/C filter plates were presoaked in 0.3% PEI (protect from light) for 60 minutes at room temperature. The plate was then washed three times with ice-cold wash buffer (25 mM Tris-HCl, PH7.4, 130 mM NaCl, 5 mM MgCl2, 0.4 mM CaCl2, 0.1% BSA) prior to filtration of the binding samples. The binding reaction was terminated by rapid filtration of 100 μl binding mixture through the GF/C plate. Plates were then washed 6 times with ice-cold wash buffer. Filter plates were dried with a hair dryer for 20 minutes. 60 μl/well MICROSCINT 20 (a cocktail for microplates) was added to the bottom of sealed filters, then the filters were sealed at the top with tape. Bound radioactivity was counted in a TOPCOUNT scintillation counter. Exemplary compounds bind in the 1-500 nM range.

Row | SMILES | half-lives in rats [1] | tmax [1] | clearance [1] [mL/min/kg] | Cmax [1] [nM] | bioavailability [1] [%] | half-life [1] [h] | Maximum Increase in Calcium (mg/dl) (serum calcium; at 30 mpk) | Ki (human CaSR) [nM] | IC50 (human CaSR) [nM] | Maximum Increase in Calcium (mg/dl) (serum calcium; at 10 mpk)
1 | CSc1ccc(CC(C)(C)NC[C@@H](O)CO[C@H](C)c2ccc(C)c3c2C2[C@H](O3)[C@H]2C(=O)O)cc1F (stereo partly drawn) [Example 8-24] | short half-lives | less than an hour | 40 | 160 | 7 | 1.8 | 1 (at mg/dl | 29 | 29 | 
2 | C[C@@H](OC[C@H](O)CNC(C)(C)Cc1ccc2ccccc2c1)c1cccc2c1[C@@H]1[C@H](O2)[C@H]1C(=O)O [Example 5-1] | short half-lives | less than an hour | 52.5 | 690 | 7 | 1.3 |  | 7 | 7 | 2.3 (at mg/dl
3 | C[C@@H](OC[C@H](O)CNC(C)(C)Cc1ccc2ccccc2c1)c1cccc2c1O[C@@H]1[C@@H](C(=O)O)[C@H]21 [Example 1-1] | short half-lives | less than an hour | 11 | 2400 | 24 | 1.7 | 1.5 (at mg/dl | 18 | 18 | 

Source: patent US20160311791A1, “NOVEL TRICYCLIC CALCIUM SENSING RECEPTOR ANTOGONISTS FOR THE TREATMENT OF OSTEOPOSOSIS” (MERCK SHARP & DOHME CORP., priority 2013, published 2016)
